In patent US20240115729A1, “COMPOSITIONS AND METHODS FOR TARGETED ANTIFIBROTIC THERAPY IN CHRONIC PANCREATITIS” (University of Virginia Patent Foundation, priority 2021, published 2024):
“And” between values parts separate entries of the source, which are not always exact repeats. Identical values can stand only once.

Experiments:
[1] = system: caerulein-induced CP mice (inflamed pancreas) versus healthy mice; assay: In vivo validation of individual phage clones: ex vivo IVIS fluorescence of organs after co-injection of targeting phage (VT680) and wild type M13Ke phage (VT750); parameters: species or system mouse (C57BL/6J); conditions: for CP-to-Healthy Ratio (fold change of specificity ratio): Pancreas; for specificity for CP over healthy pancreas: individual clones from Groups 2 and 3
Experimental: C57BL/6 J mice (6-12 week-old, female) were used for the in vivo phage screening. For chronic pancreatitis, caerulein (Bachem, Torrance, California, United States of America) was dissolved in sterile saline and administrated to mice twice a day, 8 hours apart for 14 consecutive days, at a concentration of 250 μg/kg body weight via intraperitoneal injection (Halbrook et al., 2017), as shown in FIG. 1A. During the 14-day course, intraperitoneal injections of 100 μg/kg buprenorphine were given every 3 days to minimize the induced pain. For healthy controls, c57BL/6 J mice were injected intraperitoneally with an equal volume of sterile saline following the same schedule as in the chronic pancreatitis models. […] Picrosirius red (Polysciences, Inc., Warrington, Pennsylvania, United States of America) was used to visualize collagen in paraffin-embedded pancreas sections (FIG. 1B).
Specificity of phage clones. After PHASTpep analysis and candidate clone selections, 18 candidate clones were grouped (4-5 clones per group, 4 groups total) based on sequence similarity using GibbsCluster Server 2.0 (Andreatta et al., 2017). by the Technical University of Denmark (FIG. 2). […] For each group, the fluorescently labeled candidate and WT phage were mixed and co-injected in CP and healthy mice (n=5) Phage accumulation was determined by measuring the ex vivo fluorescent intensity of the pancreas at 20 hours post-injection using the Fluorescent Molecular Tomography (FMT, PerkinElmer, Waltham, Massachusetts, United States of America) using the excitation and emission wavelength at 675 nm/720 nm for VT680 and 745 nm/800 nm for VT750. To account for variations of fluorescent labeling efficiency, the raw readouts of VT680 and VT750 were normalized to the dye-per-phage ratio (see Table 3 below).
The specificity ratio was calculated as % ID/g of the normalized VT680 divided by the % ID/g of the normalized VT750 (see Equation (1)). Quantifications are included in Table 4.
A similar procedure was applied to determine the specificity of individual phage clones in Groups 2 and 3. Candidate clones were labeled with VivioTag 680 (VT680, PerkinElmer, Waltham, MA) to match the detectable wavelength of the IVIS Spectrum Series (Perkin Elmer, Waltham, Massachusetts, United States of America). Fluorescent intensity was measured at 20 hours post-injection of candidate phage (VT680) and WT phage (VT750). Fold change of specificity ratio was calculated as the specificity ratio of CP mice divided by the specificity ratio of the healthy mouse (see Table 5).

CD31 (endothelium) = assay: Immunofluorescence colocalization (MCC) of VT680-labeled phage with cell marker in CP pancreas; type: in vivo, mouse; conditions: CP pancreas sections
Text: (§1) Immunofluorescence (IF). Post ex vivo imaging, mouse pancreata were submerged in Neg-50 Frozen Section Medium (Thermo Scientific, Waltham, Massachusetts, United States of America) and snap-frozen over liquid nitrogen vapor. The embedded tissues were cut into 5 μm sections using a cryostat (Leica Microsystems Inc., Buffalo Grove, Illinois, United States of America) for subsequent imaging with ZEISS LSM-880 Confocal Laser Scanning Microscope (Carl Zeiss Meditec, Inc., Jena, Germany) at the Advanced Microscopy Facility at the University of Virginia. Cell types of interest in the pancreatitis microenvironment were identified by immunohistochemistry using the following antibodies: rat anti-mouse CD31 at 1:200 dilution (endothelial markers; BD Biosciences, San Jose, California, United States of America), rat anti-mouse CD206 at 1:1000 dilution (M2 macrophage markers; Bio-Rad, Hercules, California, United States of America), rabbit anti-mouse cytokeratin 7 at 1:3000 dilution (CK-7, epithelial markers; Abcam, Cambridge, Massachusetts, United States of America), rabbit anti-mouse collagen IIIa at 1:200 dilution (ECM markers; Abcam, Cambridge, Massachusetts, United States of America), goat anti-mouse carboxypeptidase A1 at 1:200 dilution (CPA1, acini markers; R&D Systems, Inc., Minneapolis, Minnesota, United States of America), rat anti-mouse F4/80 at 1:500 (macrophage markers; Bio-Rad, Hercules, California, United States of America), and FITC-conjugated, mouse anti-mouse α-SMA at 1:200 dilution (MilliporeSigma, St. Louis, Missouri, United States of America). ALEXA FLUOR® 488 (Abcam, Cambridge, Massachusetts, United States of America) antibodies from appropriate species, including donkey anti-goat, donkey anti-rat, donkey anti-rabbit at 1:500 dilution, were used as secondary antibodies to locate the primary antibodies. IF-stained pancreatic sections were mounted with PROLONG™ Gold Antifade Mountant with DAPI (Thermo Fisher Scientific Inc, Waltham, Massachusetts, United States of America, United States of America) for nucleus visualization. IF images were taken on Ziess LSM 880 Confocal Microscope (ZIESS, Oberkochen, Germany) at the Advanced Microscopy Facility at the University of Virginia.
(§2) To identify the cell types that the CP targeting clones were binding, immunofluorescent analysis was performed on common cellular components in the CP microenvironment in the inflamed pancreas sections following in vivo validation of individual clones (FIG. 7). Mander's correlation coefficient (MCC) analysis was performed to determine colocalization of the targeting phage to the cell markers.

CK7 (epithelium) = assay: as above; type: in vivo, mouse; conditions: CP pancreas sections
Text: as §1, §2

[2] = system: CPA-1+ cells (acinar cells); assay: as above; type: in vivo, mouse; conditions: CP pancreas sections
Text: as §1, §2

[3] = system: F4/80+ cells (macrophages); assay: as above; type: in vivo, mouse; conditions: CP pancreas sections
Text: as §1, §2

[4] = system: collagen IIIa+ cells (ECM); assay: as above; type: in vivo, mouse; conditions: Col IIIa; CP pancreas sections
Text: as §1, §2

[5] = system: αSMA+ cells (activated PSC); assay: as above; type: in vivo, mouse; conditions: CP pancreas sections
Text: as §1, §2

[6] = system: cellular components in the CP microenvironment; assay: Cellular selectivity of phage clones: one-way ANOVA and Tukey-Kramer comparison of MCC of all cell markers; type: in vivo, mouse
Text: as §1
Statistical analysis. Statistical analysis of the data was performed by student t-test, one-way analysis of variance (ANOVA), and Tukey-Kramer test. All data presented are expressed as mean+standard error of at least three independent measurements. For all comparisons, p-values<0.05 were considered significant.
as §2

[7] = statistically significant selectivity for a single cellular component in CP

Substance	Radiant efficiency Targeting:M13Ke ([1]; CP mouse, liver)	Radiant efficiency Targeting:M13Ke ([1]; CP mouse, pancreas)	Radiant efficiency Targeting:M13Ke ([1]; CP mouse, spleen)	CP-to-Healthy Ratio ([1]; Liver)	CP-to-Healthy Ratio (fold change of specificity ratio) [1]	CP-to-Healthy Ratio ([1]; Spleen)	Radiant efficiency Targeting:M13Ke ([1]; healthy mouse, liver)	Radiant efficiency Targeting:M13Ke ([1]; healthy mouse, pancreas)	Radiant efficiency Targeting:M13Ke ([1]; healthy mouse, spleen)	specificity for CP over healthy pancreas [1]	Mean Manders' Correlation Coefficient (MCC), fraction of phage overlapping cell marker (CD31 (endothelium))	Mean Manders' Correlation Coefficient (MCC), fraction of phage overlapping cell marker (CK7 (epithelium))	Mean Manders' Correlation Coefficient (MCC), fraction of phage overlapping cell marker [2]	Mean Manders' Correlation Coefficient (MCC), fraction of phage overlapping cell marker [3]	Mean Manders' Correlation Coefficient (MCC), fraction of phage overlapping cell marker [4]	Mean Manders' Correlation Coefficient (MCC), fraction of phage overlapping cell marker [5]	Cell type the phage clone shows specificity to ([6]; CP microenvironment)	Marker the phage clone shows specificity to ([6]; CP microenvironment)	Colocalized Markers (p < 0.05) [6, 7]	Corresponding Cellular Components [6, 7]
HPYSPLR [7-mer peptide, candidate phage clone from Groups 2 and 3]	0.59	6.42	3.10	0.744	1.544	1.138	0.80	4.16	2.73	increased specificity for CP over healthy pancreas	0.35	0.08	0.25	0.41	0.27	0.13				
HSGLNKQ (displayed on phage) [7-mer peptide, candidate phage clone selected by motif clustering analysis]	0.63	6.07	3.42	1.254	0.611	1.157	0.50	9.93	2.96											
KTYVPTT (displayed on phage)	0.61	11.90	3.05	1.161	1.362	0.890	0.53	8.74	3.43	increased specificity for CP over healthy pancreas	0.20	0.06	0.26	0.31	0.23	0.521±0.067 and 0.52	aPSC	α-SMA^+	α-SMA	aPSC
SANITNL (displayed on phage) [7-mer peptide, candidate phage clone selected by replicability between libraries]	0.74	4.02	4.60	1.287	0.943	1.518	0.58	4.27	3.03											
SLPLGPM (displayed on phage) [7-mer peptide, candidate phage clone from Groups 2 and 3]	0.64	6.42	3.49	0.921	1.286	1.215	0.69	5.00	2.87	increased specificity for CP over healthy pancreas	0.25	0.06	0.35	0.49	0.23	0.15				
